The text below walks through data of ChEMBL document CHEMBL4145459, “Synthesis of (3S,4S,5S)-trihydroxylpiperidine derivatives as enzyme stabilizers to improve therapeutic enzyme activity in Fabry patient cell lines” (Eur J Med Chem, 2018).

For data set [1], the target named is T1, Alpha-galactosidase A (Homo sapiens) (UniProt P06280).
T1 sequence (whole entry): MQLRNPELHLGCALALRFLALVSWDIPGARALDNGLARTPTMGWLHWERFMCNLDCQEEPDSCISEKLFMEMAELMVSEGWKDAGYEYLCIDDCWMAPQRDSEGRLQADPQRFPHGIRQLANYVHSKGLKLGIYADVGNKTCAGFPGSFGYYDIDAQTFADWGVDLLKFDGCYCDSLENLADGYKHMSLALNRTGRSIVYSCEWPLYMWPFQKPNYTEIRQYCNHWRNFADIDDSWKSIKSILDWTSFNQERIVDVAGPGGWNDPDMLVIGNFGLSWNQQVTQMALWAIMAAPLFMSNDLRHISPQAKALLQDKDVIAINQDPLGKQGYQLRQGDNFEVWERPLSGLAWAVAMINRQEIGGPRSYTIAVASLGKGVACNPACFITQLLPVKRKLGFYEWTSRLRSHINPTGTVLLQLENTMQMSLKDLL
Kind of data set: Inhibition of human recombinant alpha-galactosidase A at 100 uM using 4-MU-alpha-d-galactopyranoside as substrate by fluorescence assay relative to control.

In data set [2] the target is T2, Alpha-glucosidase (Geobacillus stearothermophilus) (UniProt P94451).
T2 sequence (whole entry): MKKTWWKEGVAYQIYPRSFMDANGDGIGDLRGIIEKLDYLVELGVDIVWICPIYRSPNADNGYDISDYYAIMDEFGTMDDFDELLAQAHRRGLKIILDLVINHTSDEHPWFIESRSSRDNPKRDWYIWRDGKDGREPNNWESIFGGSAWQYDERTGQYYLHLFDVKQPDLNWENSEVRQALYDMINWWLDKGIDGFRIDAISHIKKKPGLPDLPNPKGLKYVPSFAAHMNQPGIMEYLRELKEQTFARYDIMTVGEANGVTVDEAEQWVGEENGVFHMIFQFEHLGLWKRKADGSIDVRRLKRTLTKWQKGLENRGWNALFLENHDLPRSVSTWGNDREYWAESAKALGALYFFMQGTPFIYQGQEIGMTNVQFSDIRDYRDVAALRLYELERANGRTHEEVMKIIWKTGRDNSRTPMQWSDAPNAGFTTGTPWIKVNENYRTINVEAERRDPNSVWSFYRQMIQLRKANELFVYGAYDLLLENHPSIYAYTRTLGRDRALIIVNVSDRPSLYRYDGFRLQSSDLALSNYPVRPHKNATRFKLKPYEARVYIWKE
The experiment in a line: Inhibition of Bacillus stearothermophilus alpha-glucosidase at 100 uM using 4-MU-glycopyranoside as substrate by spectrophotometric analysis.

Data set [3] concerns the target Lysosomal alpha-glucosidase (Homo sapiens) (UniProt P10253). Kind of data set: Inhibition of human recombinant acid alpha-glucosidase at 100 uM using 4-MU-glycopyranoside as substrate by spectrophotometric analysis.
Data set [4] addresses T3, Lysosomal acid glucosylceramidase (Homo sapiens) (UniProt P04062).
T3 sequence (whole entry): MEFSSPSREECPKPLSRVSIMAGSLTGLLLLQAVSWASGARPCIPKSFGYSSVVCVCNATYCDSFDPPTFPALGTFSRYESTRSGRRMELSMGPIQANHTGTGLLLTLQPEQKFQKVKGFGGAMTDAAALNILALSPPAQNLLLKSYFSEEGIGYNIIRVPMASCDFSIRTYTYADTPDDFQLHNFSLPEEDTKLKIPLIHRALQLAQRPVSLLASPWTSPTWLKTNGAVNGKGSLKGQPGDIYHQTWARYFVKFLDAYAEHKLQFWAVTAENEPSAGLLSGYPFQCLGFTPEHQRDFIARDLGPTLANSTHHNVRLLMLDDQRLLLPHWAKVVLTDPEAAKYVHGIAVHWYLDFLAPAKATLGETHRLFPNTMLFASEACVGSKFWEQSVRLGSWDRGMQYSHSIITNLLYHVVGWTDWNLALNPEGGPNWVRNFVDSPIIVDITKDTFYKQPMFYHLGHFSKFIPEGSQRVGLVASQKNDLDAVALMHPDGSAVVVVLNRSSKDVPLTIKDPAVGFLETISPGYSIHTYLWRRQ
The experiment in a line: Inhibition of human recombinant acid beta-glucosidase at 100 uM using 4-MU-glycopyranoside as substrate by spectrophotometric analysis.

Data set [5] deals with Alpha-galactosidase (Coffea arabica) (UniProt Q42656). The experiment in a line: Inhibition of green coffee beans alpha-galactosidase at 100 uM using 4-MU-glycopyranoside as substrate by spectrophotometric analysis relative to control.
Data set [6] has as its target T4, Beta-galactosidase (Homo sapiens) (UniProt P16278).
T4 sequence (whole entry): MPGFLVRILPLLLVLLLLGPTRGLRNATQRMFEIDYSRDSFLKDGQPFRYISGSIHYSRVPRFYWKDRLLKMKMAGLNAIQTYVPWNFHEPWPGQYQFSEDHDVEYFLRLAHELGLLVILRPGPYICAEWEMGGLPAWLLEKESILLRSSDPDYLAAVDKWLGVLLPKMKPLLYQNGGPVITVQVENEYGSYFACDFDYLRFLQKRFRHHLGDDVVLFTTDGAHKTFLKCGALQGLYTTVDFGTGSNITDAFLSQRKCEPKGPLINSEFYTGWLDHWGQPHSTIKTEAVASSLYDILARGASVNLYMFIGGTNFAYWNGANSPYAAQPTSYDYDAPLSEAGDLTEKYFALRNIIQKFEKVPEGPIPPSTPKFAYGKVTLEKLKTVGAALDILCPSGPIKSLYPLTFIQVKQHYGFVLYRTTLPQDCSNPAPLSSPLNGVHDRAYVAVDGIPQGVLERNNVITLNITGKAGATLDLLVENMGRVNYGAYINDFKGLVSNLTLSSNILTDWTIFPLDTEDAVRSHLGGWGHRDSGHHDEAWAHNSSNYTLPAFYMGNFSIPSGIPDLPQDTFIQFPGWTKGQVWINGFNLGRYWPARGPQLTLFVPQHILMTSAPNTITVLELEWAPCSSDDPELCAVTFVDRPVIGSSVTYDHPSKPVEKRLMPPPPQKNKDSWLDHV
Kind of data set: Inhibition of human lymphocyte beta-galactosidase at 100 uM using 4-MU-glycopyranoside as substrate by spectrophotometric analysis.

For data set [7], the system named is Lymphocyte. Kind of data set: Cytotoxicity against human lymphocytes at 100 uM after 48 to 72 hrs by AlamarBlue assay. Format: cell-based.

Activity calls are given as the source filed them. No cut-off for these calls is given here.

Chain of Alpha-galactosidase (Coffea arabica) (Q42656 16-378 limits assumed): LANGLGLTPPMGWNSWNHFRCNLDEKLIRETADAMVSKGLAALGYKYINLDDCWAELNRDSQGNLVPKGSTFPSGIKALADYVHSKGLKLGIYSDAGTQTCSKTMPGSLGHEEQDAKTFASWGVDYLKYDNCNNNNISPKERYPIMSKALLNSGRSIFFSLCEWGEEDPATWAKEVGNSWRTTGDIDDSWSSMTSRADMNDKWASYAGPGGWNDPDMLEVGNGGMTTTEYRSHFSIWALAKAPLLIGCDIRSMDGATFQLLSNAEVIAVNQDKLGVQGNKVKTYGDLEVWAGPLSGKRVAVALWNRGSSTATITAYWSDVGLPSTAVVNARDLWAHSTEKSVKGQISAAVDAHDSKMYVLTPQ

What is called inhibition is how much of the control response was suppressed. Consider `O=C(CCCCC1CCCCC1)NC[C@H]1NC[C@H](O)[C@@H](O)[C@H]1O`, for which the inhibition came to 99% in data set [1] and 57% in data set [5]. Moreover, the inhibition result in data set [2], in data set [3], in data set [4] and in data set [6] was “inactive” throughout. Moreover, in data set [7], the Activity entry is reported as “Non-Toxic”.
Turning to `NC[C@H]1NC[C@H](O)[C@@H](O)[C@H]1O`, the inhibition in data set [1] was 99%; in data set [5] it was over 20%. Further, the inhibition result in data set [2], in data set [3], in data set [4] and in data set [6] was “inactive” each time.
Consider `O=C(CCC1CCCC1)NC[C@H]1NC[C@H](O)[C@@H](O)[C@H]1O`, for which the inhibition in data set [1] was determined as 99%; in data set [5], 37%. In addition, the inhibition entry in data set [2], in data set [3], in data set [4] and in data set [6] was “inactive” each time. Moreover, the Activity entry in data set [7] is reported as “Non-Toxic”.
Regarding `NC[C@@H]1NC[C@H](O)[C@@H](O)[C@H]1O`, the inhibition in data set [1] was found to be 30%; in data set [5], 9%. The inhibition result in data set [2], in data set [3], in data set [4] and in data set [6] was “inactive” in each case.
Take `NC[C@H]1NC[C@H](O)[C@H](O)[C@H]1O`: in data set [1], the inhibition was determined as 19%. Further, the inhibition result in data set [2], in data set [3], in data set [4], in data set [5] and in data set [6] was “inactive” in each case.
`O=C(/C=C/c1ccc(C(F)(F)F)cc1)NC[C@H]1NC[C@H](O)[C@@H](O)[C@H]1O`: the inhibition in data set [1] turned out to be 99%; in data set [5] it was 41%. In addition, the inhibition entry in data set [2], in data set [3], in data set [4] and in data set [6] was “inactive” throughout. For the same compound, the Activity entry in data set [7] was “Non-Toxic”.
`O=C(/C=C/c1cccc(Br)c1)NC[C@H]1NC[C@H](O)[C@@H](O)[C@H]1O`: the results for the inhibition in data set [1] and in data set [5] were 99% and 56%, respectively. Moreover, the inhibition result in data set [2], in data set [3], in data set [4] and in data set [6] was “inactive” in each case. The Activity result in data set [7] is listed as “Non-Toxic”.
In the case of `CC(C)=CCCC(C)CC(=O)NC[C@H]1NC[C@H](O)[C@@H](O)[C@H]1O` (stereo partly specified), the inhibition in data set [1] was found to be 99%; in data set [5], 29%. Further, the inhibition result in data set [2], in data set [3], in data set [4] and in data set [6] was “inactive” throughout. Further, in data set [7], the Activity entry is “Non-Toxic”.
For `NC[C@@H]1NC[C@H](O)[C@H](O)[C@H]1O`, the inhibition in data set [1] was 45%; in data set [5] it was 13%. Besides, the inhibition result in data set [2], in data set [3], in data set [4] and in data set [6] was “inactive” in each case.
Turning to `COc1ccc(Br)cc1/C=C/C(=O)NC[C@H]1NC[C@H](O)[C@@H](O)[C@H]1O`, the figures for the inhibition in data set [1] and in data set [5] were 99% and 47%, respectively. The inhibition result in data set [2], in data set [3], in data set [4] and in data set [6] was “inactive” in each case. For the same compound, the Activity result in data set [7] was “Non-Toxic”.
